Measured values: patent US20080300199A1, “ANTIBACTERIAL 1,4,5-SUBSTITUTED AMINOGLYCOSIDE ANALOGS” (Achaogen Inc., priority 2007, published 2008)
Values after ≈ are worked out from the molar mass of the structure shown.

Key:
Type in all cases: cell-based
[1] = system: P. aeruginosa APAE040; test: MIC assay, aminoglycoside-resistant P. aeruginosa APAE040; conditions: origin SPRI; for MIC (μg/ml) APAE040: phenotype AAC(3)-I; for MIC: Pseudomonas aeruginosa, APAE040, phenotype AAC(3)-I, read-out: MIC (μg/ml) APAE040
Procedure: (§1) The MIC assays were carried out in 150 μL volume in duplicate in 96-well clear flat-bottom plates. The bacterial suspension from an overnight culture growth in appropriate medium was added to a solution of test compound in 4% DMSO in water. Final bacterial inoculum was approximately 10^5-10^6 CFU/well. The percent growth of the bacteria in test wells relative to that observed for a well containing no compound was determined by measuring absorbance at 595 nm (A595) after 24 h. […] Both ampicillin and tetracycline are used as antibiotic-positive controls in each screening assay for E. coli, S. aureus and K. pneumoniae. Ciprofloxacin is used as an antibiotic-positive control in each screening assay for P. aeruginosa. Amikacin is used as an antibiotic-positive control in each screening assay for A. baumannii. Each of the bacterial cultures that are available from ATCC (www.atcc.org) is identified by its ATCC number.
(§2) MIC assays were carried out as set forth in Example 20 above against certain aminoglycoside-resistant strains of Pseudomonas Aeruginosa.

[2] = system: P. aeruginosa APAE042; test: MIC assay, aminoglycoside-resistant P. aeruginosa APAE042; conditions: origin SPRI; for MIC (μg/ml) APAE042: phenotype AAC(6′)-II; for MIC: Pseudomonas aeruginosa, APAE042, phenotype AAC(6′)-II, read-out: MIC (μg/ml) APAE042
Procedure: as §1, §2

[3] = system: P. aeruginosa APAE1009; test: MIC assay, aminoglycoside-resistant P. aeruginosa APAE1009; conditions: origin RJ - Greece; for MIC (μg/ml) APAE1009: phenotype AAC(6′)-I + Efflux; for MIC: Pseudomonas aeruginosa, APAE1009, phenotype AAC(6′)-I + Efflux, read-out: MIC (μg/ml) APAE1009
Procedure: as §1, §2

[4] = system: P. aeruginosa APAE1058; test: MIC assay, aminoglycoside-resistant P. aeruginosa APAE1058; conditions: origin CF - USA; for MIC (μg/ml) APAE1058: phenotype High level efflux; for MIC: Pseudomonas aeruginosa, APAE1058, phenotype High level efflux, read-out: MIC (μg/ml) APAE1058
Procedure: as §1, §2

[5] = system: P. aeruginosa APAE1068; test: MIC assay, aminoglycoside-resistant P. aeruginosa APAE1068; conditions: origin Focus - France; for MIC (μg/ml) APAE1068: phenotype AAC(6′)-I + Efflux; for MIC: Pseudomonas aeruginosa, APAE1068, phenotype AAC(6′)-I + Efflux, read-out: MIC (μg/ml) APAE1068
Procedure: as §1, §2

[6] = system: E. coli ATCC 25922; test: MIC assay, E. coli ATCC 25922; conditions: absorbance at 595 nm after 24 h; for MIC: Escherichia coli, ATCC25922, read-out: MIC (μg/ml) E. coli ATCC 25922
Procedure: as §1, with “CFU/well.” for “CFU/well. The percent growth of the bacteria in test wells relative to that observed for a well containing no compound was determined by measuring absorbance at 595 nm (A595) after 24 h.”, “Ciprofloxacin is used as an antibiotic-positive control in each screening assay for P. aeruginosa.” left out

[7] = system: S. aureus ATCC 29213; test: MIC assay, S. aureus ATCC 29213; conditions: absorbance at 595 nm after 24 h; for MIC: Staphylococcus aureus, ATCC29213, read-out: MIC (μg/ml) S. aureus ATCC 29213
Procedure: as §1

[8] = system: P. aeruginosa ATCC 27853; test: MIC assay, P. aeruginosa ATCC 27853; conditions: absorbance at 595 nm after 24 h; for MIC: Pseudomonas aeruginosa, ATCC27853, read-out: MIC (μg/ml) P. aeruginosa ATCC 27853
Procedure: as §1, with “CFU/well.” for “CFU/well. The percent growth of the bacteria in test wells relative to that observed for a well containing no compound was determined by measuring absorbance at 595 nm (A595) after 24 h.”, “Ciprofloxacin is used as an antibiotic-positive control in each screening assay for P. aeruginosa.” left out

[9] = system: K. pneumoniae ATCC 10031; test: MIC assay, K. pneumoniae ATCC 10031; conditions: absorbance at 595 nm after 24 h; for MIC: Klebsiella pneumoniae, ATCC10031, read-out: MIC (μg/ml) K. pneumoniae ATCC 10031
Procedure: as §1

[10] = system: A. baumannii ATCC 19606; test: MIC assay, A. baumannii ATCC 19606; conditions: absorbance at 595 nm after 24 h; for MIC: Acinetobacter baumannii, ATCC19606, read-out: MIC (μg/ml) A. baumannii ATCC 19606
Procedure: as §1

[11] = system: aminoglycoside-resistant Pseudomonas aeruginosa; test: MIC assays against aminoglycoside-resistant strains of Pseudomonas aeruginosa, summary in words; conditions: particularly strains expressing efflux-based resistance alone or with AMEs; in comparison to compound 10 and comparative compounds A and B
Procedure: as §1, §2

Row | MIC (μg/ml) APAE040 [1] [µg/mL] | MIC (μg/ml) APAE042 [2] [µg/mL] | MIC (μg/ml) APAE1009 [3] [µg/mL] | MIC (μg/ml) APAE1058 [4] [µg/mL] | MIC (μg/ml) APAE1068 [5] [µg/mL] | MIC [6] [µg/mL] | MIC [7] [µg/mL] | MIC [8] [µg/mL] | MIC [9] [µg/mL] | MIC [10] [µg/mL] | MIC [1] [µg/mL] | MIC [2] [µg/mL] | MIC [3] [µg/mL] | MIC [4] [µg/mL] | MIC [5] [µg/mL] | Compound | further results
1 | 4 (≈ 6.89 µM) | 4 (≈ 6.89 µM) | >8 | >8 | 8 | – | – | – | – | – | – | – | – | – | – | NCC1C=CC(N)C(OC2C(N)CC(N)C(O)C2OC2OC(CO)C(OC3OC(CN)C(O)C(O)C3N)C2O)O1 (centres unmarked) [A, 3′,4′-Di-deoxy-3′,4′-Di-dehydro-neomycin-B, reference compound] | –
2 | – | – | – | – | – | 1 to 8 (≈ 1.71 to 13.7 µM) | 1 to 8 (≈ 1.71 to 13.7 µM) | 1 to 8 (≈ 1.71 to 13.7 µM) | < 1 | > 8 | – | – | – | – | – | NCC[C@H](O)C(=O)N[C@@H]1C[C@H](N)[C@@H](O[C@H]2O[C@H](CN)[C@@H](O)[C@H](O)[C@H]2O)[C@H](O)[C@H]1O[C@H]1O[C@H](CO)[C@@H](O)[C@H](N)[C@H]1O [Amikacin, reference compound] | –
3 | 1 (≈ 1.72 µM) | 2 (≈ 3.43 µM) | >8 | >8 | 4 | – | – | – | – | – | – | – | – | – | – | NCC1CCC(N)C(OC2C(N)CC(N)C(O)C2OC2OC(CO)C(OC3OC(CN)C(O)C(O)C3N)C2O)O1 (centres unmarked) [B, 3′,4′-Di-deoxy-neomycin-B, reference compound] | –
4 | – | – | – | – | – | < 1 | < 1 | < 1 | < 1 | 1 to 8 (≈ 1.46 to 11.7 µM) | 2 (≈ 2.93 µM) | 1 (≈ 1.46 µM) | 4 | 32 (≈ 46.8 µM) | 8 | NCC[C@H](O)C(=O)N[C@@H]1C[C@H](N)[C@@H](O[C@H]2O[C@H](CN)CC[C@H]2N)[C@H](O[C@@H]2O[C@H](CO)[C@@H](O[C@H]3O[C@@H](CN)[C@@H](O)[C@H](O)[C@H]3N)[C@H]2O)[C@H]1O [Compound 10, 3′,4′-Di-deoxy-N-1 haba neomycin] | –
5 | – | – | – | – | – | 1 to 8 (≈ 1.47 to 11.7 µM) | < 1 | 1 to 8 (≈ 1.47 to 11.7 µM) | < 1 | 1 to 8 (≈ 1.47 to 11.7 µM) | 1 (≈ 1.47 µM) | 0.5 (≈ 0.733 µM) | 2 | 16 (≈ 23.5 µM) | 2 | NCC[C@H](O)C(=O)N[C@@H]1C[C@H](N)[C@@H](O[C@H]2O[C@H](CN)C=C[C@H]2N)[C@H](O[C@@H]2O[C@H](CO)[C@@H](O[C@H]3O[C@@H](CN)[C@@H](O)[C@H](O)[C@H]3N)[C@H]2O)[C@H]1O [Compound 11] | activity on aminoglycoside-resistant Pseudomonas aeruginosa strains [11]: superior activity
6 | – | – | – | – | – | – | – | – | – | – | – | – | – | – | – | NCC[C@H](O)C(=O)NC1CC(N)C(OC2OC(CN)CC(O)C2N)C(OC2OC(CO)C(OC3OC(CN)C(O)C(O)C3N)C2O)C1O (some centres unmarked) [Compound 18, 4′-Deoxy-N-1 haba neomycin] | MIC (μg/ml) E. coli ATCC 25922 [6]: B (MIC's of greater than 1.0 μg/mL to 8.0 μg/mL = B); MIC (μg/ml) S. aureus ATCC 29213 [7]: B (MIC's of greater than 1.0 μg/mL to 8.0 μg/mL = B); MIC (μg/ml) P. aeruginosa ATCC 27853 [8]: A (MIC's of 1.0 μg/mL or less = A); MIC (μg/ml) K. pneumoniae ATCC 10031 [9]: A (MIC's of 1.0 μg/mL or less = A); MIC (μg/ml) A. baumannii ATCC 19606 [10]: B (MIC's of greater than 1.0 μg/mL to 8.0 μg/mL = B)
